In patent US20170260210A1, “METHOD FOR PREPARING MARMYCIN A AND ANALOGUES THEREOF, AND ALSO USES THEREOF” (Centre national de la recherche scientifique, priority 2014, published 2017):
“Also recorded” adds a separate entry of the source. One block for each molecule: values may come before it.

Tests used:
[1] = tested on: HT1080 cells (fibrosarcoma line); assay: Cell viability assay (CellTiter-Blue) on HT1080 cells; type: cell-based
Description: (§1) U2OS and A2780 cells purchased from ATCC were held in McCoy's 5A or RPMI 1640 medium respectively, supplemented with 10% foetal bovine serum (FBS)) and 1× Antibiotic-Antimycotic (all from Gibco®) at 37° C. with 5% CO2. Measurement of cell viability was carried out by seeding 2000 cells per well in a 96-well plate. N-Acetyl Cystein (NAC, A9165 Sigma) or Pan-caspase zVAD-FMK inhibitor (550377 by BD pharmingen) were pre-treated for 1 hour or 30 minutes respectively before treatment with Marmycin A. The reagent <<CellTiter-Blue®>> Reagent) (20 μl/well) was added after 24, 48, or 72 treatment hours, and the cells were incubated for one hour before fluorescence detection (560(20)Ex/590(10)Em) on a Perkin Elmer Wallac 1420 Victor2 Microplate Reader.
The same protocol was followed to evaluate cell viability of HT1080 cells in the presence of compound 33 of Example 6 (called Oxamethoxymarmycin), doxorubicin or etoposide.

[2] = tested on: A2780 cells (ovarian cancer line); assay: Cell proliferation/viability assay (CellTiter-Blue) on A2780 cells; type: cell-based; conditions: Homo sapiens, at 72 hours
Description: as §1

[3] = tested on: U2OS cells (osteosarcoma cancer line); assay: Cell proliferation/viability assay (CellTiter-Blue) on U2OS cells; type: cell-based; conditions: Homo sapiens, at 72 hours
Description: as §1

[4] = tested on: DNA-damage response (phosphorylation of H2AX on ser139, phosphorylation of P53, induction of P21); assay: Western Blot analysis of DNA-damage response; type: cell-based; conditions: cells treated as in Example 10
Description: The cells treated as indicated in Example 10 were washed twice in PBS and lysed with Laemmli buffer 2×. The cell extracts were brought to the boil for five minutes at 100° C. and quantified with a Nanodrop 2000 device (Thermal Scientific). 100 μg of protein lysate were separated with 4-20% Mini-PROTEAN® TGX Stain-Free™ gel (BioRad) and transferred onto a nitrocellulose membrane (Amersham). Stains were detected with different antibodies such as anti-β-actin (ab8226, Abcam), anti-p62 (610833, BD Transduction Laboratories™), anti-H2AX (PA1-14198, Thermal Scientific), anti-gH2AX (Ser139) (#2577, Cell Signaling), anti-p21, anti-p53 (1C12) (#2524, Cell Signaling), anti-p-p53, anti-LC3B (#2775, Cell Signaling), anti-BID, diluted to 1/1000 in 5% BSA, 0.1% Tween-20/TBS.

[5] = tested on: human breast, prostate, lung, colon, ovarian cancer lines and leukaemia; conditions: cited from earlier work
lysosomes of U2OS cells = assay: Cell location by fluorescence (LysoTracker DND-22, GFP-Lamp1, DAPI) in U2OS cells; type: cell-based; conditions: U2OS cells treated 24 hours with 10 μM
Description: U2OS cells cultured to less than 40% confluence were treated for 24 hours with 10 μM of compound unless otherwise indicated. The marker LysoTracker® Blue DND-22 (L7525, Molecular Probes@) was added 30 minutes before fixing. GFP-Lamp1 was transiently transfected following the manufacturer's instructions. To summarise, […] of CellLight® Lysosomes-GFP BacMam 2.0 (C10596, Life Technologies) were mixed with […] of U2OS culture medium and added to each well of a 24-well plate. After overnight incubation (16 hours), the cells were washed and treated with Marmycin A as indicated in Example 9. For analysis by immunofluorescence, the cells were fixed 12 minutes in 2% formaldehyde/PBS, permeabilised 10 min with 0.1% Triton X/PBS and […] for 1 h with 5% BSA, 0.2% Tween-20/PBS (blocking buffer). Cover glasses were incubated with anti-LAMP1, p62, antibodies, diluted to 1/100 in the blocking buffer overnight at 4° C. The cells were then washed 3 times with 0.2% Tween-20/PBS, and incubated as described above with anti-mouse Alexa 488-conjugated secondary antibody (A11029, Invitrogen) diluted to 1/500 in blocking buffer. The cover glasses were washed as described above and mounted with VectaShield® mounting medium for analysis by fluorescence with or without DAPI (Vector Laboratories Ltd). The images were obtained with a Leica microscope […] and analysed with ImageJ software. […]

[6] = tested on: HMLER CD24- cancerous stem cell line (HMLER CD44high/CD24low); assay: Cell viability assay on HMLER CD24- cancerous stem cell line; type: cell-based, human
Description: (§2) Cell viability: cell viability was assessed using the following protocol:
(§3) Seeding 1000 cells/well in a 96-well plate. The cells were treated for 72 hours. After a treatment time of 72 hours the reagent CellTiter-Blue® Reagent (G8081, Promega) was added and the cells incubated for one hour before recording fluorescence intensities (Excitation, 560/20 nm; Emission, 590/10 nm) using a Perkin Elmer Wallac 1420 Victor2 Microplate Reader.
(§4) Cell culture: the following material was used: saline buffer <<Dulbecco's Phosphate-Buffered Saline>> (14190-094, 500 mL, Gibco), DMEM/F12 (31331-028, 500 mL, Gibco), DMEM high-glucose with UltraGlutamine (BE12-604F/U1, BioWhittaker, Lonza), McCoy's 5A medium (Modified) (26600-023, Gibco), RPMI 1640 with L-glutamine (BE12-702F/U1, BioWhittaker, Lonza), Foetal Bovine Serum—FBS, 10270-106, Gibco), Hydrocortisone (H0888, Sigma), Insulin (10516, Sigma or 19278, Sigma), BD Epidermal growth factor human recombinant (hEGF, 354052, BD Biosciences), PEN-STREP (DE17-602E, BioWhittaker, Lonza), puromycin dihydrochloride (A11138-02, 460 Life Technologies).
The human mammary epithelial cell line was infected with a retrovirus carrying hTERT, SV40 and the oncogenic allele HrasV12, called HMLER CD44high/CD24 low cells, not expressing E-cadherin and Vimentin (reference HMLER CD24low or HMLER CD44+/CD24−), courteously offered by A. Puisieux (INSERM).
(§5) The HMLER CD44^high/CD24^low cells (Cancer stem cells—CSCs), HMLER CD44^high/CD24^high (non-CSCs) were cultured in DMEM/F12 supplemented with 10% FBS, 10 μg/mL insulin, 0.5 μg/mL hydrocortisone, 10 ng/mL hEGF and 0.5 μg/mL of puromycin.

[7] = tested on: HMLER ID2 cancerous cell line; assay: Cell viability assay on HMLER ID2 cancerous cell line; type: cell-based, human; conditions: HMLER ID2 cells
Description: as §2, §3, §4
The line referenced HMLER ID2 is a hTert, SV40, HRasV12 transformed line, isogenic but non-stem.
as §5

[8] = tested on: MDA-MB-231 cells (human breast cancer cells); assay: Cell viability assay (CellTiter-Blue) on MDA-MB-231 cells; type: cell-based
Description: MDA-MB-231 cells (human breast cancer cells) purchased from ATCC were held in McCoy's 5A medium, supplemented with 10% foetal bovine serum (FBS)) and 1× Antibiotic-Antimycotic (all from Gibco®) at 37° C. with 5% CO2.
Cell viability was measured by seeding 2000 cells per well in a 96-well plate. N-Acetyl Cystein (NAC, A9165 Sigma) or Pan-caspase zVAD-FMK inhibitor (550377 from BD pharmingen) were pre-treated for 1 hour or 30 minutes respectively before treatment with the assayed compounds. The reagent <<CellTiter-Blue® Reagent>> (20 μl/well) was added after a treatment time of 24, 48 or 72 hours, and the cells were incubated for one hour before fluorescence detection (560(20)Ex/590(10)Em) on a Perkin Elmer Wallac 1420 Victor2 Microplate Reader.
The assayed compounds were doxorubicin, marmycin A, artesunate, artesumycin and a combination of marmycin A and artesunate (cf. FIG. 9).

[9] = Homo sapiens, HT-1080, at 72 hours

IC50 ([1]; at 72 hours): 75 µM
Molecule: Oxamethoxymarmycin

Molecule: COc1cccc2c1C(=O)c1c(O)c3c(c(O)c1C2=O)C[C@@](O)(C(=O)CO)C[C@@H]3O[C@H]1C[C@H](N)[C@H](O)[C@H](C)O1 [doxorubicin, reference compound]
IC50 [2]: 0.06 µM
IC50 [1, 9]: 0.035 µM
IC50 [3]: 0.1 µM
DNA-damage response (Western Blot) [4]: generates a DNA-damage response

IC50 [2]: 9.8 µM
IC50 [3]: 10.3 µM
Molecule: Cc1ccc2c3c(ccc2c1)C(=O)c1c(ccc2c1NC1(C)CC2O[C@@H](C)[C@@H]1O)C3=O (stereo partly drawn) [marmycin A]
cytotoxic properties [5]: cytotoxic properties
cell location (lysosomes of U2OS cells): not located at the cell nucleus but at the site of the lysosomes; also recorded: accumulates in the lysosomes
DNA-damage response (Western Blot) [4]: only scarcely damages caspase-dependent DNA

IC50 [1, 9]: 0.5 µM
Molecule: COc1cc([C@@H]2c3cc4c(cc3[C@@H](O[C@@H]3O[C@@H]5CO[C@@H](C)O[C@H]5[C@H](O)[C@H]3O)[C@H]3COC(=O)[C@H]23)OCO4)cc(OC)c1O [etoposide]

IC50 ([6]; Homo sapiens, HMLER CD24- cancerous stem cells, 72 hours): 0.1 µM
IC50 ([7]; Homo sapiens, 72 hours): 0.098 µM
IC50 ([8]; Homo sapiens, 72 h treatment): 0.9 µM
Molecule: Cc1ccc2c3c(ccc2c1)C(=O)c1c(ccc2c1NC1(C)CC2O[C@@H](C)[C@@H]1OC(=O)CCC(=O)OC1O[C@@H]2O[C@@]4(C)CC[C@H]5[C@H](C)CC[C@@H]([C@H]1C)[C@@]25OO4)C3=O (stereo partly drawn) [artesumycin]
cytotoxic activity compared with artesunate ([6]; HMLER CD24- cells): higher than that of artesunate
cell viability ([6]; HMLER CD24- cells, concentration of 1 μm, 72 hours): about 18%
cytotoxic activity compared with artesunate [7]: higher than that of artesunate
cell viability ([7]; concentration of 0.1 μm, 72 hours): about 44%
cytotoxic activity compared with other treatments [8]: higher than that of marmycin A and also higher than that of marmycin A combined with artesunate; also recorded: synergic effect
cell viability ([8]; concentration of 0.9 μm): less than 50%
cell location (lysosomes of U2OS cells): accumulates in the lysosomes
